Key:
NA transporter = assay: Inhibition of noradrenalin uptake in synaptosomes; assay type: biochemical
[1] = tested on: batrachotoxin (BTX) binding site of the sodium channel; assay: Affinity to the batrachotoxin (BTX) binding site of the sodium channel; details: rat cerebrocortex synaptosomes, [3H]-batrachotoxinin A20 α-benzoate 10 nM; test concentration not given
5-HT transporter = target: T1, 5-HT transporter (Rattus norvegicus, UniProt P31652); assay: Inhibition of 5-HT uptake in synaptosomes; assay type: biochemical; details: for inhibition at 1 µM: read-out: Uptake_5-HT, rat, 1 μM, % inhibition
T1 construct: from tissue; host or cells: rat brain synaptosomes (marrow/medulla and pons), P2 fraction
T1 sequence (P31652 whole entry): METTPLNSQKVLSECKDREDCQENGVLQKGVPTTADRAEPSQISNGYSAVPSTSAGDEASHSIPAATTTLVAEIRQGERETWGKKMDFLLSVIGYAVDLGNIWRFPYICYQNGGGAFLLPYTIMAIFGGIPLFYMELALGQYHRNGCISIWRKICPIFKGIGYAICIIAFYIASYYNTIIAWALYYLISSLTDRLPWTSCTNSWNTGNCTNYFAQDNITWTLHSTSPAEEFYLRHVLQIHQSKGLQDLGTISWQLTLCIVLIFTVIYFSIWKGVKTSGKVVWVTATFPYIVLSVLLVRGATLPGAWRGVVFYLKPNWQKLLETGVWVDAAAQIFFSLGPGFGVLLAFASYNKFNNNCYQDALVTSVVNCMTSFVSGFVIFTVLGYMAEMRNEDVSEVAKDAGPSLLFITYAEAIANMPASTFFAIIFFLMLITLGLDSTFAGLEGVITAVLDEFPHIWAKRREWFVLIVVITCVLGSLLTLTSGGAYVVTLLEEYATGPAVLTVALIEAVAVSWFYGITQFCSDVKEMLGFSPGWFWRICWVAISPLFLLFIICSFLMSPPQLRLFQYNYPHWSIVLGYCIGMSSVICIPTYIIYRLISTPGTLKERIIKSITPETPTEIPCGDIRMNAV

SMILES | Uptake (NA), rat, 10 μM, % inhibition (NA transporter) [%] | BTX Inhibition [1] | Uptake_5-HT, rat, 1 μM, % inhibition (5-HT transporter) [%] | inhibition at 1 µM (5-HT transporter) [%]
CN(C)S(=O)(=O)N1CCC2(CC1)NCC(=O)N2Cc1ccccc1 [Example 9, 1-Benzyl-2-oxo-1,4,8-triazaspiro[4,5]decan-8-sulfonic acid dimethylamide] | 40 | – | – | –
COC(=O)c1ccccc1NC(=S)N1CCC2(CC1)NC(CCSC)C(=O)N2Cc1ccccc1C#N (stereo not shown) [Example 153, Methyl 2-{[1-(2-cyanobenzyl)-3-(2-methylsulfanylethyl)-2-oxo-1,4,8-triazaspiro[4,5]decan-8-carbothioyl]-amino}-benzoate] | 30 | 53 | – | –
COC(=O)c1ccc(CN2C(=O)C(C(C)C)NC23CCN(C(=O)NC2CCCCC2)CC3)cc1 (stereo not shown) [Example 206, Methyl 4-(8-cyclohexylcarbamoyl-3-isopropyl-2-oxo-1,4,8-triazaspiro[4,5]dec-1-ylmethyl)benzoate] | 39 | – | – | –
CCOC(=O)NC(=S)N1CCC2(CC1)NC(C(C)C)C(=O)N2Cc1ccc(C(=O)OC)cc1 (stereo not shown) [Example 167, Methyl 4-(8-ethoxycarbonylaminocarbothioyl-3-isopropyl-2-oxo-1,4,8-triazaspiro[4,5]dec-1-ylmethyl)benzoate] | 42 | – | – | –
CC(C)C1NC2(CCN(C(=S)Nc3ccccc3)CC2)N(Cc2ccccc2)C1=O (stereo not shown) [Example 156, 1-Benzyl-3-isopropyl-2-oxo-1,4,8-triazaspiro[4,5]decan-8-thiocarboxylic acid benzolamide] | 33 | – | – | –
COC(=O)c1ccc(CN2C(=O)C(C(C)C)NC23CCN(C(=O)Nc2cccc(OC)c2)CC3)cc1 (stereo not shown) [Example 223, Methyl 4-[3-isopropyl-8-(3-methoxy-benzolcarbamoyl)-2-oxo-1,4,8-triazaspiro[4,5]dec-1-ylmethyl]-benzoate] | 31 | – | – | –
C=CCN1C(=O)C(C(C)C)NC12CCN(C(=S)NCc1ccc(F)cc1)CC2 (stereo not shown) [Example 162, 1-Allyl-3-isopropyl-2-oxo-1,4,8-triazaspiro[4,5]decan-8-thiocarboxylic acid 4-fluorobenzylamide] | 26 | – | – | –
CCOc1ccc(NC(=O)N2CCC3(CC2)NC(CCSC)C(=O)N3Cc2ccc(F)cc2)cc1 (stereo not shown) [Example 243, 1-(4-Fluorobenzyl)-3-(2-methylsulfanylethyl)-2-oxo-1,4,8-triazaspiro[4,5]decan-8-carboxylic acid (4-ethoxy-benzol)amide] | – | 48 | 40 | –
CN1C(=O)C(Cc2ccccc2)NC12CCN(C(=O)NC1CCCCC1)CC2 (stereo not shown) [Example 202, 3-Benzyl-1-methyl-2-oxo-1,4,8-triazaspiro[4,5]decan-8-carboxylic acid cyclohexylamide] | – | 56 | – | 34
Cc1cc(C)c(S(=O)(=O)N2CCC3(CC2)NC(C(C)C)C(=O)N3Cc2ccccc2)c(C)c1 (stereo not shown) [Example 14, 1-Benzyl-3-isopropyl-8-(2,4,6-trimethylbenzolsulfonyl)-1,4,8-triazaspiro[4,5]decan-2-one] | – | 68 | 61 | –
CSCCC1NC2(CCN(C(=S)Nc3cccc(C#N)c3)CC2)N(Cc2ccc(F)cc2)C1=O (stereo not shown) [Example 192, 1-(4-Fluorobenzyl)-3-(2-methylsulfanylethyl)-2-oxo-1,4,8-triazaspiro[4,5]decan-8-thiocarboxylic acid (3-cyanobenzol)amide] | – | 35 | 38 | –
Cc1cc(C)c(S(=O)(=O)N2CCC3(CC2)NCC(=O)N3Cc2cccc(C#N)c2)c(C)c1 [Example 59, 3-[2-Oxo-8-(2,4,6-trimethylbenzolsulfonyl)-1,4,8-triazaspiro[4,5]dec-1-ylmethyl]-benzonitrile] | – | 50 | 50 | –
O=C1C(Cc2ccccc2)NC2(CCN(S(=O)(=O)c3ccccc3C(F)(F)F)CC2)N1Cc1ccccc1F (stereo not shown) [Example 81, 3-Benzyl-1-(2-fluorobenzyl)-8-(2-trifluoromethylbenzolsulfonyl)-1,4,8-triazaspiro[4,5]decan-2-one] | – | 87 | 81 | –
CCCCN1C(=O)C(CCSC)NC12CCN(C(=O)Nc1ccccc1)CC2 (stereo not shown) [Example 207, 1-Butyl-3-(2-methylsulfanylethyl)-2-oxo-1,4,8-triazaspiro[4,5]decan-8-carboxylic acid benzolamide] | – | 35 | 39 | –
CCCCN1C(=O)C(CCSC)NC12CCN(C(=S)Nc1cc(Cl)ccc1Cl)CC2 (stereo not shown) [Example 120, 1-Butyl-3-(2-methylsulfanylethyl)-2-oxo-1,4,8-triazaspiro[4,5]decan-8-thiocarboxylic acid (2,5-dichlorobenzol)amide] | – | 49 | 58 | –
CCC(C)(C)c1ccc(S(=O)(=O)N2CCC3(CC2)NCC(=O)N3Cc2ccccc2C#N)cc1 [Example 6, 2-{8-[4-(1,1-Dimethylpropyl)benzolesulfonyl]-2-oxo-1,4,8-triazaspiro[4,5]dec-1-ylmethyl}-benzonitrile] | – | 56 | 57 | –
CCOC(=O)CN1C(=O)C(Cc2ccccc2)NC12CCN(S(=O)(=O)c1ccc(Cl)s1)CC2 (stereo not shown) [Example 61, Ethyl[3-benzyl-8-(5-chlorothiophen-2-sulfonyl)-2-oxo-1,4,8-triazaspiro[4,5]dec-1-yl]-acetate] | – | 50 | – | 61
O=C1C(Cc2ccccc2)NC2(CCN(S(=O)(=O)c3ccccc3F)CC2)N1Cc1ccccc1 (stereo not shown) [Example 37, 1,3-Dibenzyl-8-(2-fluorobenzolsulfonyl)-1,4,8-triazaspiro[4,5]decan-2-one] | – | 61 | 73 | –
O=C(NCc1ccc(Cl)c(Cl)c1)N1CCC2(CC1)NC(Cc1ccccc1)C(=O)N2Cc1ccccc1F (stereo not shown) [Example 233, 3-Benzyl-1-(2-fluorobenzyl)-2-oxo-1,4,8-triazaspiro[4,5]decan-8-carboxylic acid 3,4-dichlorobenzylamide] | – | 85 | – | 44
CCCCN1C(=O)C(CCSC)NC12CCN(C(=O)Nc1ccc(OCC)cc1)CC2 (stereo not shown) [Example 221, 1-Butyl-3-(2-methylsulfanylethyl)-2-oxo-1,4,8-triazaspiro[4,5]decan-8-carboxylic acid (4-ethoxy-benzol)amide] | – | 44 | 47 | –
CSCCC1NC2(CCN(C(=O)Nc3cccc(C(C)=O)c3)CC2)N(Cc2ccccc2C#N)C1=O (stereo not shown) [Example 234, 1-(2-Cyanobenzyl)-3-(2-methylsulfanylethyl)-2-oxo-1,4,8-triazaspiro[4,5]decan-8-carboxylic acid (3-acetylbenzol)amide] | – | 31 | 45 | –
CCOC(=O)c1ccc(NC(=O)N2CCC3(CC2)NC(Cc2ccccc2)C(=O)N3Cc2ccccc2F)cc1 (stereo not shown) [Example 235, Ethyl 4-{[3-benzyl-1-(2-fluorobenzyl)-2-oxo-1,4,8-triazaspiro[4,5]decan-8-carbonyl]-amino}-benzoate] | – | 77 | – | 65
C=CCN1C(=O)C(CCSC)NC12CCN(S(=O)(=O)c1c(C)cc(OC)c(C)c1C)CC2 (stereo not shown) [Example 79, 1-Allyl-8-(4-methoxy-2,3,6-trimethylbenzolsulfonyl)-3-(2-methylsulfanylethyl)-1,4,8-triazaspiro[4,5]decan-2-one] | – | 67 | 37 | –

Source: patent US7560468B2, “Substituted 1,4,8-triazaspiro[4,5]decan-2-one compounds” (Gruenenthal GmbH, priority 2004, dated 2009)
